pIC50: −log10 of the molar value. Entries after “also recorded” stand apart in the source; their conditions may differ.
Tests used:
hCD33 [1] = target: T1, hCD33 (Homo sapiens, UniProt P20138); experiment: solution-phase inhibition assay, flow cytometry: binding of fluorescently labelled hCD33 to ligand-coated beads
Protocol: Glycan microarrays may provide only qualitative measures of avidity and selectivity. Therefore, the relative affinities of these compounds were analyzed using solution-phase inhibition assays where IC50 values were determined using a flow cytometry assay. The flow cytometry assay evaluated whether the compounds were able to prevent the binding of fluorescently labelled hCD33 to ligand-coated beads, and these values were used to determine the relative inhibitory potency (rIP) for each compound compared to the native sialoside (rIP=1).
Target sequence in this assay (P20138 18-364): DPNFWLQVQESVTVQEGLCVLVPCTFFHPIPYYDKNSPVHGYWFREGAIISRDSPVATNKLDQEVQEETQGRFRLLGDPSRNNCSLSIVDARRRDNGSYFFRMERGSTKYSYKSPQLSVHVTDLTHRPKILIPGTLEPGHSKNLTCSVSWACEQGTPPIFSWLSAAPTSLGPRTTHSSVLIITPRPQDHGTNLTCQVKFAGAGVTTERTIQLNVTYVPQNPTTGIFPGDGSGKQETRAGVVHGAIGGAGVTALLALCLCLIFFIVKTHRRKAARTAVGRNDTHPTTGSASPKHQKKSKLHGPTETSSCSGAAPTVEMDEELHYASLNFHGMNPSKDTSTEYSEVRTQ

HL-60 cells = experiment: HL-60 cell binding to arrayed compound; set-up: species or system human; conditions: AML cell line expressing intermediate levels of hCD33
From the text: This increase in avidity was further supported by the fact that HL-60 cells, an AML cell line expressing intermediate levels of hCD33, bound to compound 22.

hCD33 [2] = target: T1, hCD33; experiment: glycan microarray binding of hCD33-Fc; set-up: made in house
Target sequence in this assay (P20138 18-259 limits assumed): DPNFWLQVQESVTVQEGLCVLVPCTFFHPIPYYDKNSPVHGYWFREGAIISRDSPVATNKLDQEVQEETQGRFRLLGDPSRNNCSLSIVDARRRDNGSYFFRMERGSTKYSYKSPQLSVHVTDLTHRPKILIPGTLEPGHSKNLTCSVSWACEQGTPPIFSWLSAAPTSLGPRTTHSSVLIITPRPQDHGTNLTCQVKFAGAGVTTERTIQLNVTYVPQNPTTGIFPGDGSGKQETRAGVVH

Siglec-8 = Siglec-8 (Homo sapiens, UniProt Q9NYZ4); conditions: Bochner et al. 2005; Floyd et al. 2000; cited from earlier work
Chain of Siglec-8 (Q9NYZ4 17-499): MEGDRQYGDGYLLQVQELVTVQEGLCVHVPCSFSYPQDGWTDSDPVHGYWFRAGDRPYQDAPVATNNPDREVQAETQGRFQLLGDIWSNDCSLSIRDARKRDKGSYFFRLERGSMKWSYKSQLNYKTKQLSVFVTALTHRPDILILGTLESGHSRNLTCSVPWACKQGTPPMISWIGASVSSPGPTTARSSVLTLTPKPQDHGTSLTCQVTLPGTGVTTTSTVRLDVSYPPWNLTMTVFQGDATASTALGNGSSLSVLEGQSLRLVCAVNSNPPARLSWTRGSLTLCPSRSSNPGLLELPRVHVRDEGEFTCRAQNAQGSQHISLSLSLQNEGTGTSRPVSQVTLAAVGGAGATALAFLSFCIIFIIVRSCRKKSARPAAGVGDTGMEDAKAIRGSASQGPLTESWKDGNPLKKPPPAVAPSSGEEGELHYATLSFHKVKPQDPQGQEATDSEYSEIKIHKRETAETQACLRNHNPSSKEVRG

Row | Compound | increase in affinity relative to the native sialoside (hCD33 [1]; hCD33) | pIC50 (hCD33 [1]; prevention of binding of fluorescently labelled hCD33 to ligand-coated beads) | rIP value (hCD33 [1]; relative inhibitory potency compared to the native sialoside (rIP=1)) | binding of HL-60 cells to compound (HL-60 cells) | selectivity for hCD33 over hCD22 and mSn (hCD33 [2]; glycan microarray) | binding (affinity/avidity, selectivity) to hCD33 on glycan array (hCD33 [2]; printed at 100 μM or 3 μM, hCD33-Fc pre-complexed with R-PE anti-human IgG) | binding to Siglec-8 (Siglec-8)
1 | Cc1cc(C(=O)NC[C@@H](O)[C@@H](O)C2O[C@@](OCC3O[C@@H](O[C@@H]4C(CO)O[C@@H](OCCN)C(O)[C@H]4O)C(O)[C@@H](O)[C@H]3O)(C(=O)O)C[C@@H](O)[C@H]2NC(=O)Cn2cc(C3CCCCC3)nn2)cc(C)c1O (stereo partly shown) [Compound 22] | 350 fold | 4.96 | 351 | bound | showed increased selectivity for hCD33 over hCD22 and mSn | exhibited superior properties compared to the monosubstituted compounds; also recorded: exhibited higher avidity than both parent compounds | –
2 | Neu5Acα2-3[6-SO4]Galβ1-4[Fucα1-3]GlcNAc [6′-sulfo-sLe^X] | – | – | – | – | – | – | binds to
